# Measurements as given in US8846704B2, “Thiopyrimidine-based compounds and uses thereof” (YM Biosciences Austraila Pty Ltd, priority 2007, dated 2014).
# Tests used:
# [1] = target: T1, KDR(h) (Homo sapiens, UniProt P35968); assay: Upstate KinaseProfiler enzyme assay, KDR; format: biochemical; settings: 500 nM compound; read-out: Percent inhibition at 500 nM KDR(h)
# T1 construct: purchased Upstate Biotechnology (Dundee, UK), KinaseProfiler service
# Method in brief: (§1)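 First, enzymes were pre-diluted (10× working) in 20 mM MOPS, pH 7.0, supplemented with EDTA (1 mM), BSA (1 mg/ml) and glycerol (5%), plus 0.1% β-mercaptoethanol and 0.01% Brij-35. Next, they were added to the assay alongside substrates diluted in de-ionised water.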
# [2] = target: T2, Flt 4(h) (Homo sapiens, UniProt P35916); assay: Upstate KinaseProfiler enzyme assay, Flt 4; format: biochemical; settings: 500 nM compound; read-out: Percent inhibition at 500 nM Flt 4(h)
# T2 construct: purchased Upstate Biotechnology (Dundee, UK), KinaseProfiler service
# Experimental: (§2) Further enzyme assays were conducted at Upstate Biotechnology (Dundee, UK) in the KinaseProfiler™ Assay system.
# (§3) The general protocol is as follows. All kinases are pre-diluted to a 10× working concentration prior to addition into the assay. The composition of the dilution buffer for the kinases is 20 mM MOPS pH 7.0, 1 mM EDTA, 0.1% β-mercaptoethanol, 0.01% Brij-35, 5% glycerol, 1 mg/ml BSA. All substrates are dissolved and diluted to working stocks in de-ionised water.
# [3] = target: T3, BTK(h) (Homo sapiens, UniProt Q06187); assay: Upstate KinaseProfiler enzyme assay, BTK; format: biochemical; settings: 500 nM compound; read-out: Percent inhibition at 500 nM BTK(h)
# T3 construct: purchased Upstate Biotechnology (Dundee, UK), KinaseProfiler service
# Method in brief: as §1
# [4] = test system: BaF3 wild-type cells; assay: Cellular screening, BaF3 wild-type cells, Alamar Blue; format: cell-based; settings: Mus musculus, 40 hr, read-out: BAF3wt IC50_nM
# Method in brief: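 Cells were cultured in DMEM with 10% FCS and 10% WEHI 3B conditioned medium, and suspensions were prepared at 1.1× final (50,000–200,000 cells/mL). Compounds from 20 μM dilution plates were added at 10× final and incubated for 40 hr at 37° C, 5% CO2. Alamar Blue was then added for 4–6 hours and read at 544 nm.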
# [5] = target: T4, Flt 1(h) (Homo sapiens, UniProt P17948); assay: Upstate KinaseProfiler enzyme assay, Flt 1; format: biochemical; settings: 500 nM compound; read-out: Percent inhibition at 500 nM Flt 1(h)
# T4 construct: purchased Upstate Biotechnology (Dundee, UK), KinaseProfiler service
# Experimental: as §2, §3
# [6] = target: T5, Bmx(h) (Homo sapiens, UniProt P51813); assay: Upstate KinaseProfiler enzyme assay, Bmx; format: biochemical; settings: 500 nM compound; read-out: Percent inhibition at 500 nM Bmx(h)
# T5 construct: purchased Upstate Biotechnology (Dundee, UK), KinaseProfiler service
# T5 sequence (P51813 1-675): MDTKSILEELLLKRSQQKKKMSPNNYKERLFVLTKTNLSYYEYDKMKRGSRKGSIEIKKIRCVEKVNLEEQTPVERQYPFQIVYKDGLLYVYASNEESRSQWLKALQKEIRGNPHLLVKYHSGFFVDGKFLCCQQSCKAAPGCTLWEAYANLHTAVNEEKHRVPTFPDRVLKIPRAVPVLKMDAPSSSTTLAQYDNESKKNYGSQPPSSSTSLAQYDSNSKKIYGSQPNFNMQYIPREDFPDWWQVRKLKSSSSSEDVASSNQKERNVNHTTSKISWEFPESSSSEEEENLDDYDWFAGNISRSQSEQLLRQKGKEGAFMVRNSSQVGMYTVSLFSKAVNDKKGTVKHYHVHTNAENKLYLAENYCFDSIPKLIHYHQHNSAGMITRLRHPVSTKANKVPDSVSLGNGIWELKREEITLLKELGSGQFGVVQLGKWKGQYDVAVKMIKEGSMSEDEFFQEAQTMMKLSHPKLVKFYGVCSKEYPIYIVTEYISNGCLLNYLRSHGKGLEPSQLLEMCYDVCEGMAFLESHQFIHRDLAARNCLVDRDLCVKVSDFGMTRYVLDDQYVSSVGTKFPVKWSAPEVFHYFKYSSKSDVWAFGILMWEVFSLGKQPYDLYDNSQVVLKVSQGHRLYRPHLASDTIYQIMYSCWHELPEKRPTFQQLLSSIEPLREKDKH
# Method in brief: as §1
# [7] = target: T6, Blk(m) (Mus musculus, UniProt P16277); assay: Upstate KinaseProfiler enzyme assay, Blk; format: biochemical; settings: 500 nM compound; read-out: Percent inhibition at 500 nM Blk(m)
# T6 construct: purchased Upstate Biotechnology (Dundee, UK), KinaseProfiler service
# Method in brief: as §1
# [8] = target: T7, human JAK3 (Homo sapiens, UniProt P52333); assay: Alphascreen tyrosine kinase enzyme assay, JAK3 kinase domain; format: biochemical; settings: read-out: JAK3 IC50_nM
# T7 construct: The kinase domain of human JAK3 was amplified; GST (N); made in house; host or cells: Sf9 insect cells (baculovirus)
# Method in brief: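 GST-affinity-purified human JAK3 kinase domain (baculovirus/Sf9) was pre-incubated 20 min with compound ([…]) in HEPES pH 7.5 buffer with MgCl2, vanadate and Tween 20. Biotinylated peptide substrate ([…]) and ATP were then added; phosphotyrosine was detected by AlphaScreen PY100 acceptor and streptavidin donor beads after 2–3 h.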
# T1 sequence (P35968 20-1356): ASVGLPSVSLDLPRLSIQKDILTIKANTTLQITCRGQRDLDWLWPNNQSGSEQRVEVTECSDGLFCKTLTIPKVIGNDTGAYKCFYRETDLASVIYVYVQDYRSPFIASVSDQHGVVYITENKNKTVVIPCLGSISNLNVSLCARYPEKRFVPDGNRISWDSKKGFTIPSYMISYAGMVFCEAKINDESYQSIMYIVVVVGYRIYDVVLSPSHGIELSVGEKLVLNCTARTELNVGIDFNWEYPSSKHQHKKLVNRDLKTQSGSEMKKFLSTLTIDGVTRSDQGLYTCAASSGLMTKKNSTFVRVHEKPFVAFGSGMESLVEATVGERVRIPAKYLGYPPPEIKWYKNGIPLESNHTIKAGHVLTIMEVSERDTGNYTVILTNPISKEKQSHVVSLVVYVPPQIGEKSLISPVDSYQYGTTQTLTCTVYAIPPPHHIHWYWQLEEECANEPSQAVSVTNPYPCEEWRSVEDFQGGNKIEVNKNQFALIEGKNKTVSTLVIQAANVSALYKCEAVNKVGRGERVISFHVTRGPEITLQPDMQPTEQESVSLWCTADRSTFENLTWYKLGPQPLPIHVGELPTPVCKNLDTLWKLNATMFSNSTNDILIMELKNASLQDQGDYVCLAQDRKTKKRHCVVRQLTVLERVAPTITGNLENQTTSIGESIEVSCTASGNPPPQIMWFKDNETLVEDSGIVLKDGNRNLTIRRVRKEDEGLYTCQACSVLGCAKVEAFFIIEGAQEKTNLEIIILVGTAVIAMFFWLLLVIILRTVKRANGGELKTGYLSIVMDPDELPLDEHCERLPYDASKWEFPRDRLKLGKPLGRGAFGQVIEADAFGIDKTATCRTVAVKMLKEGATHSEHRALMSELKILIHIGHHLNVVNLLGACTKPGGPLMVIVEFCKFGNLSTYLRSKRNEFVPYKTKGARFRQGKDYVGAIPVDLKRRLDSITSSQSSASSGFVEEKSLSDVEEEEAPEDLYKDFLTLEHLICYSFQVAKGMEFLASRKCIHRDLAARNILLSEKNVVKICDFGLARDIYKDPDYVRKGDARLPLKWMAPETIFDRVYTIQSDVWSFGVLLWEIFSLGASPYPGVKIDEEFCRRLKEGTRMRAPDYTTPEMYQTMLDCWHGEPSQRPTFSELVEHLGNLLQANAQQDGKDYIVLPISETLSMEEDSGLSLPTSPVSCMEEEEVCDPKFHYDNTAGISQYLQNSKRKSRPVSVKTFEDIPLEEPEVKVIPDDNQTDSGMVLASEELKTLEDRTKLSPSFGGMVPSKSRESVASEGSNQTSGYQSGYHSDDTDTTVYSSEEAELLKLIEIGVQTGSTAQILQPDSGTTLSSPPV
# T7 sequence (P52333 822-1111 limits assumed): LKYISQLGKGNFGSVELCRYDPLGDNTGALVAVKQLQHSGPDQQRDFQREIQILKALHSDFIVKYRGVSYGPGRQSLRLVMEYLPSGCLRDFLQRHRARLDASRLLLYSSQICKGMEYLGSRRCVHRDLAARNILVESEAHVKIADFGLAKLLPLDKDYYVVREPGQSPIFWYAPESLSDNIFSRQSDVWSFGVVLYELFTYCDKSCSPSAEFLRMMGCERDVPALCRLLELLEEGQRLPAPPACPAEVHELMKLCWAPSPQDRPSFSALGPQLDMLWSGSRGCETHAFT
# T4 sequence (P17948 27-1338): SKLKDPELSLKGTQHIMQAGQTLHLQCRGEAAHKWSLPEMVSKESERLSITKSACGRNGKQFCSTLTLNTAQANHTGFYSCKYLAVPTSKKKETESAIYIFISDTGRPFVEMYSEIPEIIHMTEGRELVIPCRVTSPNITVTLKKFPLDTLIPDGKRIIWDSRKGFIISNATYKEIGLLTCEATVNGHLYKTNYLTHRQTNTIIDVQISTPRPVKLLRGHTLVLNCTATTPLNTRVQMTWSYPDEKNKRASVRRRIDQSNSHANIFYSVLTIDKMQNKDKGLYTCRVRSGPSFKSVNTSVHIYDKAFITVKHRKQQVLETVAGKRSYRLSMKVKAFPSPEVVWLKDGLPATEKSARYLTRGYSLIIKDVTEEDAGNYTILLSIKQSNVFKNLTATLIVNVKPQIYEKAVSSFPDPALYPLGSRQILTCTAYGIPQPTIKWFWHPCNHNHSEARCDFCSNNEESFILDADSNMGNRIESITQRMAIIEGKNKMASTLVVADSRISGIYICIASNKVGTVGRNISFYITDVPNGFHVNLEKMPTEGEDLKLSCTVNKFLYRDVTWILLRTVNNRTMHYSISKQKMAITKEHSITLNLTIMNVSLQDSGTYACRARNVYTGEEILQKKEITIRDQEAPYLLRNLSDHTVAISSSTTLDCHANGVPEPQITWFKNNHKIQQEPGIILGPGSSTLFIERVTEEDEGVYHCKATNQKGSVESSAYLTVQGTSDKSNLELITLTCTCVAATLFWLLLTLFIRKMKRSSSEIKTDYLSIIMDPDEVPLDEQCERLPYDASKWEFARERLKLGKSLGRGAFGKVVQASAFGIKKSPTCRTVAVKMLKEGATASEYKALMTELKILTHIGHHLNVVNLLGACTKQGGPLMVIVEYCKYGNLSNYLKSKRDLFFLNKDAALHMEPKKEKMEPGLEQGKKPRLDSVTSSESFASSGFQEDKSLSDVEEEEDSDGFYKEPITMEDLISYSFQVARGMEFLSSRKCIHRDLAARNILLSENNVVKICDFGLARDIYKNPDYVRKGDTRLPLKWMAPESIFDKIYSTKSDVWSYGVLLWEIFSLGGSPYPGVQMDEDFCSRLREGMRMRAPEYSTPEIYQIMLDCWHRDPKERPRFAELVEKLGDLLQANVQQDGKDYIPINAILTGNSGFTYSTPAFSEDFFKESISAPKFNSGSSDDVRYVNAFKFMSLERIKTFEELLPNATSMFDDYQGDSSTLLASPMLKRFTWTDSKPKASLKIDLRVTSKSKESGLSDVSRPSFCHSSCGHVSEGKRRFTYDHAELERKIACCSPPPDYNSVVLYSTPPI
# T2 sequence (P35916 25-1363): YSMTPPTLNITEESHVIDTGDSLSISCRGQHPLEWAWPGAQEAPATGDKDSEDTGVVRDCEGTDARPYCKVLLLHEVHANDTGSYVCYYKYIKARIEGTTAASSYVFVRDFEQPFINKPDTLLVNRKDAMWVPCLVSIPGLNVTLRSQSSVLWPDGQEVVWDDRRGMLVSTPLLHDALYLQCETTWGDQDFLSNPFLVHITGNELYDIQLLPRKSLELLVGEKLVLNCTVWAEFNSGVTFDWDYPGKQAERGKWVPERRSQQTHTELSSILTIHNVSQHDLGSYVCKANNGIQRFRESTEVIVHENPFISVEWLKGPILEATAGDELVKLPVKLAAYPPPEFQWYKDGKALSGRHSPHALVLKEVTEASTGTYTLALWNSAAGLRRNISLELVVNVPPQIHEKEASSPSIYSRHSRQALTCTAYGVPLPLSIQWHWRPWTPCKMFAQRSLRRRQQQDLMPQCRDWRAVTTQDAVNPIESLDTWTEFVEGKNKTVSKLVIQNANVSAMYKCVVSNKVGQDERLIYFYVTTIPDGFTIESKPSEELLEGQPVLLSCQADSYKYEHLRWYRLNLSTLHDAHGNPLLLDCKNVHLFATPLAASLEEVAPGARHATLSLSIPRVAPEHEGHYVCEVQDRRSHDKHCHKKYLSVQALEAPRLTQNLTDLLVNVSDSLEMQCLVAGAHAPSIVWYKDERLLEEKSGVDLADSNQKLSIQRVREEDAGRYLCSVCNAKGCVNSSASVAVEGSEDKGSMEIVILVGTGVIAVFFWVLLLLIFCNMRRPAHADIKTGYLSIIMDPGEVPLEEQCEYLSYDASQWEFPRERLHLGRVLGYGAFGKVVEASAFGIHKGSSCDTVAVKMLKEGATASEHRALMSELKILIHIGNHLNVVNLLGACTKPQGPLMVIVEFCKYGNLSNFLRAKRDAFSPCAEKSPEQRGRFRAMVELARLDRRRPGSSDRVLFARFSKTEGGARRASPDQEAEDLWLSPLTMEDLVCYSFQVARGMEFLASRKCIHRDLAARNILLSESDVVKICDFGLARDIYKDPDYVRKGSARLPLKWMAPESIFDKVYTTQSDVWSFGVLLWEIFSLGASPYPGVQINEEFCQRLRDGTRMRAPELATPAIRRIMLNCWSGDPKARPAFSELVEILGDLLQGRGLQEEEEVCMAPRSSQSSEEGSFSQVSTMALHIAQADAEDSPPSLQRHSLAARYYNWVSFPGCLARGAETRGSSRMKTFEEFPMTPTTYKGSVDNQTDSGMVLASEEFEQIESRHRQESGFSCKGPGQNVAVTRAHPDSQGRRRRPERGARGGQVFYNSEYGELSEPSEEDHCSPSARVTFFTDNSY
# T6 sequence (P16277 whole entry): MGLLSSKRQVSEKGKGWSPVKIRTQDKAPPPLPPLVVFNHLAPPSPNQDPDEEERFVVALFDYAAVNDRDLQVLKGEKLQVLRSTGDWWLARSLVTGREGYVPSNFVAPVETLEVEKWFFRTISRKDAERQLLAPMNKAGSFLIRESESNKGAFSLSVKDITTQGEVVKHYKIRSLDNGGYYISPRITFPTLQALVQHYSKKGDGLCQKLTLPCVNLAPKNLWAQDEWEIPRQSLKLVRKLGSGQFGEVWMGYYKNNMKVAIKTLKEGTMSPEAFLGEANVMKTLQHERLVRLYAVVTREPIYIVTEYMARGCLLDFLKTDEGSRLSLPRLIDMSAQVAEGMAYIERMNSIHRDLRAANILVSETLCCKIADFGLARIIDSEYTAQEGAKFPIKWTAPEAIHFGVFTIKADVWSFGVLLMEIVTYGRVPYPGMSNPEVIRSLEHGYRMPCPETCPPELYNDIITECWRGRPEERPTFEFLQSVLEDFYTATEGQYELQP
SMILES,inhibition at 0.5 µM [1] [%],inhibition at 0.5 µM [2] [%],inhibition at 0.5 µM [3] [%],IC50 [4] [µM],inhibition at 0.5 µM [5] [%],inhibition at 0.5 µM [6] [%],inhibition at 0.5 µM [7] [%],IC50 [8] [nM]
"C=CC(=O)Nc1ccc(Sc2nc(Nc3cccc(NS(C)(=O)=O)c3)ncc2C)cc1 [Compound 288, N-(4-(5-methyl-2-(3-(methylsulfonamido)phenylao)pyrimidin-4-ylthio)phenyl)acrylamide]",94,100,98,< 20,100,100,99,< 100
"C=CC(=O)Nc1ccc(Sc2nc(Nc3ccc(N4CCOCC4)c(OC)c3)ncc2C)cc1 [Compound 248, N-(4-(2-(3-methoxy-4-morpholinophenylao)-5-methylpyrimidin-4-ylthio)phenyl)acrylamide]",95,100,80,< 5,95,91,92,< 100
"C=CC(=O)Nc1ccc(Sc2nc(Nc3ccc(N4CCN(C)CC4)cc3)ncc2C)cc1 [Compound 239, N-(4-(5-methyl-2-(4-(4-methylpiperazin-1-yl)phenylao)pyrimidin-4-ylthio)phenyl)acrylamide]",96,100,97,< 5,100,99,99,< 100
"C=CC(=O)Nc1ccc(Sc2nc(Nc3cccc(N4CCOCC4)c3)ncc2F)cc1 [Compound 267, N-(4-(5-fluoro-2-(3-morpholinophenylao)pyrimidin-4-ylthio)phenyl)acrylamide]",94,100,94,< 5,100,89,96,< 100
"C=CC(=O)Nc1ccc(Sc2nc(Nc3ccc(OCCN4CCOCC4)cc3)ncc2C)cc1 [Compound 290, N-(4-(5-methyl-2-(4-(2-morpholinoethoxy)phenylao)pyrimidin-4-ylthio)phenyl)acrylamide]",95,100,94,< 5,100,97,97,< 100
"C=CC(=O)Nc1ccc(Sc2ccnc(Nc3ccc(S(N)(=O)=O)c(OC)c3)n2)cc1 [Compound 374, N-(4-(2-(3-methoxy-4-sulfamoylphenylao)pyrimidin-4-ylthio)phenyl)acrylamide]",96,100,96,< 5,100,91,96,< 100
"O=C(/C=C/Cl)Nc1cccc(Sc2ccnc(Nc3ccc(N4CCOCC4)cc3)n2)c1 [Compound 340, (E)-3-chloro-N-(3-(2-(4-morpholinophenylao)pyrimidin-4-ylthio)phenyl)acrylamide]",94,95,97,< 5,100,92,99,< 100
"C=CC(=O)Nc1ccc(Sc2nc(Nc3ccc(N4CCC(CO)CC4)cc3)ncc2C)cc1 [Compound 286, N-(4-(2-(4-(4-(hydroxymethyl)piperidin-1-yl)phenylao)-5-methylpyrimidin-4-ylthio)phenyl)acrylamide]",94,100,74,> 20,98,95,88,< 100
